Consider 5 compounds from publication PMC10135050, “Neutralizing Carbapenem Resistance by Co-Administering Meropenem with Novel β-Lactam-Metallo-β-Lactamase Inhibitors” (Antibiotics, 2023).

SMILES strings stand for the structures.

Details of data set [1]: method as in PMID 32179522. Conditions: cited from earlier work.
Data set [2] concerns the target T1, Recombinant human glyoxylase II (Glo2) (Homo sapiens, UniProt Q16775).
T1 construct: purchased BioVision Inc., Waltham, MA, USA
In words: Non-specific binding to zinc in non-MBLs, glyoxylase II activity. In kind it is biochemical. The conditions noted are these: 50–500 µM. The source says: Metal chelators are known to suffer from off-target specificity and as a result have been criticized as potential MBLIs in vivo [44].
The methodology has been previously described. EDTA (purchased from Merck KGaA, Darmstadt, Germany) was included as a positive control.

For data set [3] the following is noted: in vivo; cited from earlier work.
On the set-up of data set [4]: method as in PMID 26849010, PMID 32903882. The conditions noted are these: cited from earlier work.

`COC(=O)C(CC(=O)N[C@@H]1C(=O)N2C(C(=O)O)=C(C[n+]3ccccc3)CS[C@H]12)N1CCN(CC(=O)O)CCN(CC(=O)O)CC1` (some centres unmarked) [BP1]: the “Decrease in the bacterial load in vivo” value in data set [1] was “approximately 3 log10 units”.

Consider `O=C(O)CN(CCN(CC(=O)O)CC(=O)O)CC(=O)O` [EDTA, reference compound], for which, in data set [2], the “Glyoxylase II activity” value is “significantly reduced”.

Turning to `O=C(O)CN1CCN(CC(=O)O)CCN(CC(=O)O)CC1` [NOTA], the Bioavailability result in data set [3] was “poor bioavailability”.

Turning to `c1ccc(CN(CCN(Cc2ccccn2)Cc2ccccn2)Cc2ccccn2)nc1` [TPEN, N,N,N′,N′-Tetrakis (2-Pyridylmethyl) Ethylenediamine], in data set [4], the Cytotoxicity entry is reported as “cytotoxicity”.

For `CN(C[C@H](O)[C@@H](O)[C@H](O)[C@H](O)CO)C(=O)c1ccc(CN(Cc2ccccn2)Cc2ccccn2)nc1` [ZN148], in data set [1], the “Decrease in the bacterial load in vivo” value is listed as “approximately 3 log10 units”.
